Data published in the METLIN SMRT retention time set (Domingo-Almenara et al. 2019).

Test: gradient 5% acetonitrile 3 min, to 50% in 2 min, to 85% in 15 min, held 3 min, 100 µL/min
Settings: column: Zorbax Extend-C18 2.1 x 50 mm; eluents: water / acetonitrile, 0.1% formic acid
Method in brief: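 Over 3 months, pure standards in mixtures of ~100 molecules were run by HPLC coupled to a quadrupole time-of-flight mass spectrometer in positive and negative ionization mode. The column was a Zorbax Extend-C18 (2.1 × 50 mm, 1.8 μm) at 100 μL/min, eluted with water and acetonitrile each holding 0.1% formic acid, with 40 μL dead and 900 μL dwell volumes. Retention time was determined from adduct peaks chosen by software and checked manually.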

Row | Structure (SMILES) | RP-LC retention time
1 | Cc1cc(N(C)C)nc(N2CCN(C(=O)c3ccc(-c4ccccc4)cc3)CC2)n1 | 758 s
2 | O=C(NCCn1c(=O)n(Cc2ccccc2)c2cccnc21)c1ccccn1 | 719 s
3 | COc1cccc2sc(N(Cc3ccco3)C(=O)c3cc(C)nn3C)nc12 | 927 s
4 | C=CCN(Cc1nc(-c2cccc(C)c2)no1)C(=O)Nc1ccc(C)cc1 | 1110 s
5 | O=C(c1ccccc1Cl)N1CCC2(CC1)OCC(C(=O)N1CCOCC1)N2C(=O)c1ccccc1 (stereo not drawn) | 656 s
6 | CCCn1c(=O)c(C)nc2cc(-c3noc(COc4ccc(OC)cc4)n3)ccc21 | 1040 s
7 | Cc1ccc(-c2csc(-n3nc(C)c(CC(=O)Nc4cc(Cl)ccc4C)c3C)n2)cc1 | 982 s
8 | Cc1ccc(C(=O)N2CCC(n3nc(-c4ccsc4)ccc3=O)CC2)cc1 | 835 s
9 | CN(C)CCCc1cc(C(=O)Nc2ccc(-c3ccncc3)cc2)ccc1O | 580 s
10 | Fc1ccccc1-c1noc(-c2nc(Cc3ccccc3)no2)n1 | 1160 s
11 | Fc1cccc(CN2CCO[C@@H](COc3ccccn3)[C@@H]2c2ccccc2)c1 | 898 s
12 | COc1cccc(-c2csc(Nc3cc(C)ccn3)n2)c1 | 810 s
13 | Cc1ccc(-c2ncc(C(=O)Nc3cc(F)cc(F)c3)c(-c3ccncc3)n2)cc1 | 1060 s
14 | O=C(Nc1ccc(N2CCN(c3ccccc3)C2=O)nc1)c1ccncc1 | 689 s
15 | CC(C)n1c(=O)oc2cc(-c3noc(-c4cc(F)cc(F)c4)n3)ccc21 | 1220 s
16 | CCNc1nccc(N2CCC(CC(=O)NCC(C)C)CC2)n1 | 563 s
17 | C(=C\c1ccc(/C=C/c2ccccc2)nn1)/c1ccccc1 | 1140 s
18 | COc1cc(OC)cc(C2(C#N)CCN(C)CC2)c1 | 665 s
19 | CCCN(CCC)C(=O)c1cc2c(s1)N(C)CCCC2 | 1150 s
20 | CCOc1ccc(-c2noc(Cn3ncn4nc(-c5ccc(F)cc5)cc4c3=O)n2)cc1OC | 1070 s
21 | N#Cc1ccc(NC(=O)c2noc3c2CCCCC3)cc1 | 995 s

Row | Structure (SMILES) | RP-LC retention time
22 | Cn1c2c(c3ccccc31)C(C(=O)NCc1ccc(F)cc1)N(Cc1cccnc1)C(=O)CS2 (stereo not drawn) | 703 s
23 | O=C(CN1C(=O)S/C(=C\c2ccccc2)C1=O)NCCN1C(=O)CSC1=O | 746 s
24 | CN(C)C(=O)N1CC(c2nc(-c3ccc(F)cc3)no2)C2(CCOCC2)C1 (stereo not drawn) | 790 s
25 | CCN(CC)CCNC(=O)CCc1cc2ccc(C)cc2[nH]c1=O | 591 s
26 | COC[C@@H]1CN(Cc2c(C)n[nH]c2C)C[C@H]1c1ccccn1 | 558 s
27 | O=C(Cc1ccsc1)N1CCN(c2ncnc3c2CCC3)CC1 | 594 s
28 | Cc1ccccc1-n1c(=O)c2sccc2n(Cc2nc(-c3ccc(OC(C)C)cc3)no2)c1=O | 1120 s
29 | COCCC(=O)N1CCC2(CCC2OC)CC1 (stereo not drawn) | 664 s
30 | COc1ccc(-c2ccc(CNc3ncn[nH]3)o2)cc1Cl | 673 s
31 | COc1ccc2c(c1)C1(CCN(S(=O)(=O)c3cc(OC)ccc3OC)C1)C(=O)N2C (stereo not drawn) | 879 s
32 | CCN(Cc1ccc(OC)cc1)Cc1cc(=O)n2cc(C)ccc2n1 | 572 s
33 | COc1cccc(N2CCN(C(=O)C3CCN(c4ncnc5c4oc4ccccc45)CC3)CC2)c1 | 794 s
34 | CCC1c2nccn2CCCN1C(=O)CCc1c(C)noc1C (stereo not drawn) | 623 s
35 | Cc1ccc(-n2c(=O)c3c(cc(C)n3C)n(CC(=O)Nc3cccc(C)c3)c2=O)cc1 | 905 s
36 | O=C1C(=C2C=C(c3ccccc3)OC3=C2CCCC3)C(=O)c2ccccc21 | 1150 s
37 | O=C(Nc1nc(-c2ccccc2)cs1)c1ccncc1 | 734 s
38 | CCOc1ccc(-c2nc(CNC(=O)Nc3ccc(OC)c(OC)c3)c(C)o2)cc1 | 822 s
39 | O=C(Cn1c(=O)c2cc(-c3cccs3)nn2c2ncccc21)NCc1ccc(F)cc1 | 821 s
40 | CCN1C(=O)c2cccnc2Sc2cc(CNC(=O)Cc3ccccc3F)ccc21 | 767 s
41 | Cc1ccc(-c2nc(NC(=O)Cc3csc(-c4ccccc4)n3)sc2C)cc1 | 1250 s

More lines, now with the values ahead:

Row | RP-LC retention time | Structure (SMILES)
42 | 662 s | CCOc1ccc(NC(=O)c2cnc(N3CCN(C4CCCCC4)CC3)nc2N)cc1
43 | 674 s | COc1ccc(N2CCN(C(=O)c3cc4c(s3)CCN(C(C)=O)C4)CC2)cc1
44 | 908 s | Cc1ccc(CNC(=O)CN2CCc3ccccc3C2C(=O)N2CCCCC2)cc1C (stereo not drawn)
45 | 1080 s | Cc1csc(NC(=O)c2cn(Cc3cccc(F)c3)nc2OCc2cccc(F)c2)n1
46 | 559 s | Cc1ccc2cc(CCC(=O)NCCN3CCN(C)CC3)c(=O)[nH]c2c1
47 | 968 s | Cc1sc(NC(=O)c2cccc(Cl)c2)nc1-c1ccc2c(c1)NC(=O)CO2
48 | 717 s | O=C([C@H]1C[C@@H](F)CN1S(=O)(=O)c1cccc(Cl)c1)N1CCOCC1
49 | 676 s | CN(C)c1ccc(NC(=O)Cn2nc3c(Oc4ccccc4Cl)nccn3c2=O)cc1
50 | 672 s | CCCNC(=O)C1CCCN(c2ccc(SCC(=O)Nc3ccc(C(=O)OC)cc3)nn2)C1 (stereo not drawn)
51 | 772 s | Cn1cc(S(=O)(=O)N2CCC(C(=O)NCc3ccc(Cl)cc3)CC2)cc1C(=O)N1CCCC1
52 | 767 s | O=C(Nc1nnc(C2CC(=O)N(c3ccccc3)C2)o1)c1cccc(Cl)c1 (stereo not drawn)
53 | 634 s | Cc1ccc(NC(=O)N2CCN(c3cnn4c(C)nnc4c3)CC2)c(C)c1
54 | 705 s | O=C(NCc1cccc(F)c1)C1CC(=O)N(c2n[nH]c3cccc(F)c23)C1 (stereo not drawn)
55 | 621 s | O=C(Cn1nc2nc(Nc3ccc(F)cc3)ccn2c1=O)N1CCCC1
56 | 938 s | COC(=O)c1cc(S(=O)(=O)N2CCCC2C(=O)Nc2ccc(F)cc2Cl)cn1C (stereo not drawn)
57 | 885 s | O=C([C@@H]1C[C@H](F)CN1S(=O)(=O)c1ccc(C(F)(F)F)cc1)N1CCCCC1
58 | 818 s | Cc1ccc(NC(=O)C2CCCN2S(=O)(=O)c2ccc3c(c2)CCCC(=O)N3)cc1C (stereo not drawn)
59 | 689 s | COc1ccc(CCNC(=O)CSc2nc3sc(C)cc3c(=O)n2C)cc1OC
60 | 650 s | CC(C)(C)C(O)CCNC(=O)C(=O)Nc1cccc(N2CCCCC2=O)c1 (stereo not drawn)
61 | 672 s | CCNc1cc(N2CCCC(CCC(=O)NCc3ccccc3C)C2)ncn1 (stereo not drawn)
62 | 853 s | O=C(NC1CCCCC1)C1CCN(Cc2cc3ccccc3n2Cc2ccc(Cl)cc2)CC1
63 | 646 s | CCCC(=O)Nc1ccc2c(c1)CC(C(=O)NCCOC)CO2 (stereo not drawn)
64 | 810 s | Cc1scc2nc(C3CCC3)nc(N3CCC(C(=O)N4CCN(c5ccc(F)cc5)CC4)CC3)c12
65 | 973 s | CCN1C(=O)CCc2cc(NS(=O)(=O)c3cc(F)ccc3F)ccc21

Row | RP-LC retention time | Structure (SMILES)
66 | 981 s | COc1ccc(Cl)cc1S(=O)(=O)N1CCCC(C)(C(=O)NCc2ccccc2)C1 (stereo not drawn)
67 | 843 s | CCc1ccc(C2=C(C)C(N3CCCN(C(=O)C4CC4)CC3)=NS2(=O)=O)cc1
68 | 712 s | CC(=O)N(C1CCOCC1)C1CCN(S(=O)(=O)c2ccccc2)CC1
69 | 744 s | O=C(c1cccc(F)c1)N1CCC(n2c(-c3ccco3)nc3cccnc32)C1 (stereo not drawn)
70 | 630 s | COc1ccc(NC(=O)N2CC(N(C3CCOCC3)S(C)(=O)=O)C2)cc1OC
71 | 918 s | COC(=O)C(C)N1CN(c2ccc(C)cc2)c2ncccc2S1(=O)=O (stereo not drawn)
72 | 1050 s | COc1ccc(C)cc1NC(=O)c1cc(C)n2nccc2n1
73 | 654 s | COc1cccc(NC(=O)N2CC(C)Oc3ccc(C)cc32)c1 (stereo not drawn)
74 | 896 s | Cc1ccc(CN2N=C(C(=O)N3CCOCC3)S(=O)(=O)c3ccc(Cl)cc32)cc1
75 | 788 s | Cc1nc2cc(N3CC(C(=O)N4CCN(c5ccccc5F)CC4)CC3=O)ccc2o1 (stereo not drawn)
76 | 588 s | CCn1cnc(S(=O)(=O)N2CCC(C(=O)Nc3ccc(C)c(N(C)C)c3)CC2)c1
77 | 804 s | CCOc1ccc(NC(=O)N2CCN(c3ccc(=O)n(-c4ccc(F)cc4)n3)CC2)cc1
78 | 784 s | COc1ccc(Cl)cc1C(=O)NC1CCN(c2cc(-c3ccccc3)[nH]n2)C1 (stereo not drawn)
79 | 716 s | COC(=O)c1c(C)[nH]c(C(=O)N2CCC(CC(=O)NCc3ccccc3)CC2)c1C
80 | 666 s | CCN(CC)CCNC(=O)C1CCN(C2=NS(=O)(=O)C(c3ccc(C)c(C)c3)=C2C)CC1
81 | 909 s | O=C(c1cc(Cl)ccc1F)N1CCN(C(=O)c2nnn3c2COC(c2ccccc2)C3)CC1 (stereo not drawn)
82 | 784 s | CCOc1ccc(CNC(=O)C2CCCN(c3ncnc4c3oc3ccccc34)C2)cc1 (stereo not drawn)
83 | 682 s | Cc1ccc(N2CC(NC(=O)NCc3ccco3)CC2=O)cc1C (stereo not drawn)
84 | 817 s | CS(=O)(=O)N1CCC(C(=O)Nc2ccc(F)cc2)Oc2ccccc21 (stereo not drawn)
85 | 715 s | COCCN1C(=O)Cc2ccccc2C1C(=O)NCc1cccs1 (stereo not drawn)
86 | 1100 s | CN(Cc1ccccc1)C(=O)C1CCN(S(=O)(=O)c2ccc(-c3noc(C4CC4)n3)cc2)CC1
87 | 954 s | COc1ccc(C(=O)Nc2nnc(SCc3ccccc3Cl)s2)cc1OC
88 | 633 s | CCc1ccccc1NC(=O)Cn1c(N)nc(CC)c(C)c1=O
